Measurements published in ChEMBL document CHEMBL5375973, “Design and Synthesis of Novel Near-Infrared Fluorescence Probes Based on an Open Conformation of a Cytochrome P450 1B1 Complex for Molecular Imaging of Colorectal Tumors” (J Med Chem, 2023).

Assays:
Type in all cases: ADME
Cytochrome P450 1B1 = target: T1, Cytochrome P450 1B1 (Homo sapiens, UniProt Q16678); test: Inhibition of recombinant CYP1B1 (unknown origin) using 7-ethoxyresorufin as substrate preincubated for 5 mins followed by NADPH addition incubated for 35 mins by EROD assay
T1 sequence (Q16678 whole entry): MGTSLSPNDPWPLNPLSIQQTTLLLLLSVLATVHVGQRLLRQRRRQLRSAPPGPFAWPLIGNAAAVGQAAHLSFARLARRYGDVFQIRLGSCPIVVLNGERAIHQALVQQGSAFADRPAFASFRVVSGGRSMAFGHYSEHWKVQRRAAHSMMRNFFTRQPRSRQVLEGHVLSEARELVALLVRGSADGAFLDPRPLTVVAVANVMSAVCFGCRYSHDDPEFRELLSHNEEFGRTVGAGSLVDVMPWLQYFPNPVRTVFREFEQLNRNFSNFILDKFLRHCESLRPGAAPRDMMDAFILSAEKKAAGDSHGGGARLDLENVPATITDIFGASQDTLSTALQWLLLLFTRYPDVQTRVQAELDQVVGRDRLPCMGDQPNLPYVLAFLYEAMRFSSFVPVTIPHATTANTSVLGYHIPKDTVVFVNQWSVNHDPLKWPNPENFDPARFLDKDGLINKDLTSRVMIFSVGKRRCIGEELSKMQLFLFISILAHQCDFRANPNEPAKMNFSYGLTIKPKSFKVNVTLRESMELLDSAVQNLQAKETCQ

Cytochrome P450 1A2 = target: T2, Cytochrome P450 1A2 (Homo sapiens, UniProt P05177); test: Inhibition of recombinant CYP1A2 (unknown origin) using 7-ethoxyresorufin as substrate preincubated for 5 mins followed by NADPH addition incubated for 50 mins by EROD assay
T2 sequence (P05177 whole entry): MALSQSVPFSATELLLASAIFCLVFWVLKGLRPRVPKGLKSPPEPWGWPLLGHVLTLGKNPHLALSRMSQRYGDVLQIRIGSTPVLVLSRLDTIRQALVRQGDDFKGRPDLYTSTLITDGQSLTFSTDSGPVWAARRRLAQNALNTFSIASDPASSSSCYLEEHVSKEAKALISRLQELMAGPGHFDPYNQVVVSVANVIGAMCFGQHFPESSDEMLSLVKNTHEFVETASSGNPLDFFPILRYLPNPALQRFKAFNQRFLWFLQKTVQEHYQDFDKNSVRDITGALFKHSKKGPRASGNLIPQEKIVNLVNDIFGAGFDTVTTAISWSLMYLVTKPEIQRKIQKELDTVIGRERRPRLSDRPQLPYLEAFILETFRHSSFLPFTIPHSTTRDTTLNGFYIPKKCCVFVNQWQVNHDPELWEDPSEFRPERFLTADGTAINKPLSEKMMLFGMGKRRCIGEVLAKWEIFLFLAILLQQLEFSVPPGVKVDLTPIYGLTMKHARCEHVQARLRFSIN

Cytochrome P450 1A1 = target: T3, Cytochrome P450 1A1 (Homo sapiens, UniProt P04798); test: Inhibition of recombinant CYP1A1 (unknown origin) using 7-ethoxyresorufin as substrate preincubated for 5 mins followed by NADPH addition incubated for 15 mins by EROD assay
T3 sequence (P04798 whole entry): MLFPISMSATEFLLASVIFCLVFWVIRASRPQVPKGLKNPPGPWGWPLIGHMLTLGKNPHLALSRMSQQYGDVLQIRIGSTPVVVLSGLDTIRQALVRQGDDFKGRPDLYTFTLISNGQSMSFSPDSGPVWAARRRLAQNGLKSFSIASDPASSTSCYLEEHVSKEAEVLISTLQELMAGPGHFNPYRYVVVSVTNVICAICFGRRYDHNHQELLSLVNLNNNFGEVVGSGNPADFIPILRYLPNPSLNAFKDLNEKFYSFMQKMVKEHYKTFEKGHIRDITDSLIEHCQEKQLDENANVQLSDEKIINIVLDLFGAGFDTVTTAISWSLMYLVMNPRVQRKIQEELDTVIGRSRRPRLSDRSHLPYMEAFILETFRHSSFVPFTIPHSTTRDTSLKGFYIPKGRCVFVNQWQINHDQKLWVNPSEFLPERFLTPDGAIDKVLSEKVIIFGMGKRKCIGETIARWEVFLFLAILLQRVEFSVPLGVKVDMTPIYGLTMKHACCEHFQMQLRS

## COc1ccc(OC)c2c1c(OC)cc1c(=O)cc(-c3ccc(N)c(F)c3)oc12
Cytochrome P450 1B1
  IC50: 2.47 nM

## COc1ccc(OC)c2c1c(OC)cc1c(=O)cc(-c3cc(F)cc(OCCOCCN)c3)oc12
Cytochrome P450 1A2
  IC50: 525 nM

## COc1ccc(OC)c2c1c(OC)cc1c(=O)cc(-c3cc(F)cc(NC(=O)CCCCCCCCN)c3)oc12
Cytochrome P450 1A2
  IC50: > 2000 nM

## COc1ccc(OC)c2c1c(OC)cc1c(=O)cc(-c3cc(F)cc(OCCOCCOCCOCCN)c3)oc12
Cytochrome P450 1A2
  IC50: > 2000 nM

## COc1ccc(OC)c2c1c(OC)cc1c(=O)cc(-c3cc(F)cc(OCCOCCOCCN)c3)oc12
Cytochrome P450 1A2
  IC50: 1840 nM

## COc1ccc(OC)c2c1c(OC)cc1c(=O)cc(-c3cc(F)cc(NC(=O)COCCN)c3)oc12
Cytochrome P450 1A2
  IC50: 1600 nM

## COc1ccc(OC)c2c1c(OC)cc1c(=O)cc(-c3cc(F)cc(NC(=O)COCCOCCN)c3)oc12
Cytochrome P450 1A2
  IC50: > 2000 nM

## COc1ccc(OC)c2c1c(OC)cc1c(=O)cc(-c3cc(F)cc(NC(=O)CCCCN)c3)oc12
Cytochrome P450 1A2
  IC50: 514 nM

## O=c1cc(-c2ccccc2)oc2c1ccc1ccccc12 [ALPHA-NAPHTHOFLAVONE]
Cytochrome P450 1A1
  IC50: 37.8 nM
